Experimental data: PMC406516 (BMC Clinical Pharmacology, 2004)

What was measured:
[1] = biological target: albumin solutions from Baxter/Immuno, Octapharma, and Pharmacia & Upjohn (Homo sapiens, UniProt P02768)
Human serum = Human serum (Homo sapiens, UniProt P02768); assay: Drug binding by ultrafiltration in native human serum
[2] = biological target: Pharmaceutical-grade albumin Baxter/Immuno (Homo sapiens, UniProt P02768)
[3] = biological target: Pharmaceutical-grade albumin Pharmacia & Upjohn (Homo sapiens, UniProt P02768)
Chain of Pharmaceutical-grade albumin Pharmacia & Upjohn (P02768 25-609): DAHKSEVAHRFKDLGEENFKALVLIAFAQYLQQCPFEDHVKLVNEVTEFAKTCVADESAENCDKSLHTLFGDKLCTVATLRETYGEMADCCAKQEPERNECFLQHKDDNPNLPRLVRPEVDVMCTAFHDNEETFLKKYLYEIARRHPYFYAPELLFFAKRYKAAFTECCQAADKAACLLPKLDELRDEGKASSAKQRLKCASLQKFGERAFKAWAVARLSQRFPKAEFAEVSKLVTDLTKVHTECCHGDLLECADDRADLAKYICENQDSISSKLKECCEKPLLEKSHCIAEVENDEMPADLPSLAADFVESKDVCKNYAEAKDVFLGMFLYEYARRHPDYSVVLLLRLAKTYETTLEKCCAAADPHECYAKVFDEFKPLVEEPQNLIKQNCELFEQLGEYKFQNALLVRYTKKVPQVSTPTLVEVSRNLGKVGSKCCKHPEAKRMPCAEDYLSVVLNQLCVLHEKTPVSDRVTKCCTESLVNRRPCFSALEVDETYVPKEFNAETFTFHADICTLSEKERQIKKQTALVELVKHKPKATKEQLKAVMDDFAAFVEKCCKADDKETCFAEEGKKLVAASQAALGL

[4] = biological target: Pharmaceutical-grade albumin Octapharma (Homo sapiens, UniProt P02768); assay: Drug binding by ultrafiltration in pharmaceutical-grade albumin from Octapharma; settings: for n1 (specific binding sites): Final product
Chain of Pharmaceutical-grade albumin Octapharma (P02768 25-609): as above

[5] = biological target: in-process albumin (Octapharma, before addition of stabilisers and final heating) (Homo sapiens, UniProt P02768); assay: Drug binding by ultrafiltration in in-process albumin from Octapharma; settings: mean (SD), 5 experiments
Chain of in-process albumin (Octapharma, before addition of stabilisers and final heating) (P02768 25-609): as above

albumin = settings: cited from earlier work
[6] = biological target: Sigma albumin and native human serum (Homo sapiens, UniProt P02768); settings: relative to K1 of naproxen; summary of Table 2
Chain of Sigma albumin and native human serum (P02768 25-609): as above

[7] = biological target: defatted human serum albumin (Sigma albumin) (Homo sapiens, UniProt P02768); assay: Drug binding by ultrafiltration in Sigma albumin solution; settings: isolated protein, pH 7.4
Chain of defatted human serum albumin (Sigma albumin) (P02768 25-609): as above

[8] = human serum, Scatchard, mean (SD), 5 experiments
[9] = Baxter/Immuno albumin 0.615 mmol/L, Scatchard, mean (SD), 5 experiments
[10] = Pharmacia & Upjohn albumin 0.615 mmol/L, Scatchard, mean (SD), 5 experiments
[11] = charcoal treated, mean (SD), 5 experiments
[12] = Octapharma albumin 0.615 mmol/L, Scatchard, mean (SD), 5 experiments
[13] = human, isolated protein, pH 7.4

Chain of Human serum (P02768 25-609): as above
Chain of Pharmaceutical-grade albumin Baxter/Immuno (P02768 25-609): as above
Chain of albumin solutions from Baxter/Immuno, Octapharma, and Pharmacia & Upjohn (P02768 25-609): as above

Question: For `COc1ccc2cc([C@H](C)C(=O)O)ccc2c1` [Naproxen, naproxen], which specific binding ([1]; albumin solutions from Baxter/Immuno, Octapharma, and Pharmacia & Upjohn) is on record?
Answer: abolished

Question: What about the “Non Specific binding n2 (number of binding sites)” value (from here on “Non Specific binding n2”) (Human serum; [8]) of the same compound?
Answer: 3.9 (0.2)

Question: And the “Specific binding n1 (number of binding sites)” value (“Specific binding n1” for short) (Human serum; [8])?
Answer: 1.0 (0.1)

Question: What about the “Non Specific binding n2” value [2, 9] of the same compound?
Answer: 3.8 (0.2)

Question: What about the “Non Specific binding n2” value [3, 10] of the same compound?
Answer: 3.8 (0.3)

Question: What about the “n1 (specific binding sites)” value [4, 11] of the same compound?
Answer: 1.1 (0.1)

Question: And the “n1 (specific binding sites)” value ([4]; charcoal treated, mean (SD), 5 experiments, listed as naproxen)?
Answer: 1.1 ± 0.1

Question: What about the “Non Specific binding n2” value [4, 12] of the same compound?
Answer: 4.0 (0.3)

Question: Which “n1 (specific binding sites)” value ([5]; charcoal treated) does the source give for `C[C@H]1O[C@@H](O[C@H]2[C@@H](O)C[C@H](O[C@H]3[C@@H](O)C[C@H](O[C@H]4CC[C@@]5(C)[C@H](CC[C@@H]6[C@@H]5CC[C@]5(C)[C@@H](C7=CC(=O)OC7)CC[C@]65O)C4)O[C@@H]3C)O[C@@H]2C)C[C@H](O)[C@@H]1O` [Digitoxin, digitoxin] here?
Answer: 0.8 (0.03)

Question: What about the “n1 (specific binding sites)” value ([5]; not charcoal treated) of the same compound?
Answer: 0.8 (0.03)

Question: And the albumin-bound (albumin)?
Answer: more than 95%

Question: And the “free fraction higher than in native human serum and Sigma albumin” value ([1]; pharmaceutical-grade albumins versus native human serum and Sigma albumin)?
Answer: ~2 times

Question: What about the “Specific binding n1” value (Human serum; [8]) of the same compound?
Answer: 1.8 (0.5)

Question: What about the fraction unbound at 30 min (Human serum; human, serum, pH 7.4) of the same compound?
Answer: 0.049

Question: And the “K1 higher than that of naproxen” value [6]?
Answer: ~100 times

Question: And the “Specific binding n1” value [2, 9]?
Answer: 1.1 (0.1)

Question: What about the fraction unbound at 30 min [2, 13] of the same compound?
Answer: 0.111

Question: What about the “Specific binding n1” value [3, 10] of the same compound?
Answer: 1.4 (0.3)

Question: What about the fraction unbound at 30 min [3, 13] of the same compound?
Answer: 0.115

Question: And the “n1 (specific binding sites)” value [4, 11]?
Answer: 1.3 (0.2)

Question: What about the “n1 (specific binding sites)” value ([4]; not charcoal treated, mean (SD), 5 experiments) of the same compound?
Answer: 1.1 (0.1)

Question: And the “Specific binding n1” value [4, 12]?
Answer: 0.9 (0.03)

Question: What about the fraction unbound at 30 min [4, 13] of the same compound?
Answer: 0.1

Question: And the fraction unbound at 30 min [7]?
Answer: 0.051
